Source: paper PMC12220852, “An adamantane‐based ligand as a novel chemical tool for thermosensory TRPM8 channel therapeutic modulation” (The Febs Journal, 2025)
Several values for one entry are separate records, joined by “and”; a condition that tells them apart may be missing. Identical values can stand only once.

Key:
hTRPV1 = target: T1, hTRPV1 (Homo sapiens, UniProt Q8NER1); assay: Whole-cell patch-clamp of capsaicin-evoked currents in HEK293 cells expressing hTRPV1; type: cell-based; conditions: −60 mV
T1 construct: expressed in transfected cells; host or cells: HEK293 (transient, Lipofectamine 3000)
Protocol: To evaluate receptor selectivity, we investigated the activity of compound 23 on recombinant hTRPV1 and hTRPA1 channels recombinantly expressed in HEK293 cells (Fig. 4). We choose these thermosensory channels because of their structural similarity and expression in peripheral nociceptive terminals. In addition, some ligand cross‐interaction within these channels has been reported.
Recording through patch‐clamp techniques was performed on HEK293 cells cultured in DMEM GlutaMax with 10% FBS and 1% P/S. The cell lines were authenticated following the standardization of STR Profiling guidelines (ANSI/ATCC ASN‐0002‐2022) using the CLA Identifier Plus PCR Amplification Kit (Thermo Fisher‐A44660) to analyze 16 highly variant human STRs. The cells were confirmed to be mycoplasma‐free. These cells were transiently transfected with plasmids encoding hTRPV1, hTRPM8, or hTRPA1 using Lipofectamine 3000. Transfected cells were seeded on 12 mm Ø glass coverslips treated with poly‐L‐lysine solution and recorded 2 days post‐transfection. […] Leak currents were not subtracted, and conductance was calculated using the equation: G = I/(V − V r), where I is the measured ionic current, V is the applied voltage, and V r is the reversal potential that for the ionic conditions used was set to 0 mV. […]

[1] = target: T2, recombinant human TRPM8 stably expressed in HEK293 cells (hTRPM8) (Homo sapiens, UniProt Q7Z2W7); assay: Ca2+ microfluorimetry screen for agonist/antagonist activity in hTRPM8-HEK293 cells; type: cell-based; conditions: agonists vs WS-12, antagonists vs WS-12 response, read-out: Efficacy (percentage of maximal activation or blockade)
T2 construct: expressed in transfected cells
T2 sequence (Q7Z2W7 whole entry): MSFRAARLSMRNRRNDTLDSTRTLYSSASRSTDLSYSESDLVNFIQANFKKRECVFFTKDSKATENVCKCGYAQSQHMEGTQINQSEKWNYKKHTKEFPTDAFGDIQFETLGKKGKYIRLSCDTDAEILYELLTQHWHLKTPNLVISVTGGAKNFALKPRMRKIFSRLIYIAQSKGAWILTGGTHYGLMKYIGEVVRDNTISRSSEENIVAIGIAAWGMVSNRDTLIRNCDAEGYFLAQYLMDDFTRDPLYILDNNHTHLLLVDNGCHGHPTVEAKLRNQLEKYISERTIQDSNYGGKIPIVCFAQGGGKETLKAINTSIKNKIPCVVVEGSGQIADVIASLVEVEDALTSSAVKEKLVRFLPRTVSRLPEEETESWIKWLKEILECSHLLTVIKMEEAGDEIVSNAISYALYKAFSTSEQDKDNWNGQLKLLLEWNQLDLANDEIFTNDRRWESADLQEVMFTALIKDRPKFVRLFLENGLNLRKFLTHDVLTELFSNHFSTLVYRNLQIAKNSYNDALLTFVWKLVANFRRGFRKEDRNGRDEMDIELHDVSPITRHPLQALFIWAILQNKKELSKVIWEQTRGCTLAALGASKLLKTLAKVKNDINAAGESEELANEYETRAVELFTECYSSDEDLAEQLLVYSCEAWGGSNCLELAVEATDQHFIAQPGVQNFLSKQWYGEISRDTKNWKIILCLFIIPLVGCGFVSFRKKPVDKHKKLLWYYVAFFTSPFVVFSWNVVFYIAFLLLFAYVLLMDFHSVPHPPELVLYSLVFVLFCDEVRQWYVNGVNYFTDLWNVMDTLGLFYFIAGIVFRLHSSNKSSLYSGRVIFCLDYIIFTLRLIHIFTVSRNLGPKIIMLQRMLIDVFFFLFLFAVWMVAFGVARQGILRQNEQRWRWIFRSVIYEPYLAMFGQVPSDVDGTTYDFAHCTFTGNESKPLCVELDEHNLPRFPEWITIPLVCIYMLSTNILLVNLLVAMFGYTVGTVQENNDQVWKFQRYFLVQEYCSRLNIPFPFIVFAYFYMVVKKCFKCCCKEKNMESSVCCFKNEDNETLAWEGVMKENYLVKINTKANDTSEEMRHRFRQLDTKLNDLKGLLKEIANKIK

T1 sequence (Q8NER1 whole entry): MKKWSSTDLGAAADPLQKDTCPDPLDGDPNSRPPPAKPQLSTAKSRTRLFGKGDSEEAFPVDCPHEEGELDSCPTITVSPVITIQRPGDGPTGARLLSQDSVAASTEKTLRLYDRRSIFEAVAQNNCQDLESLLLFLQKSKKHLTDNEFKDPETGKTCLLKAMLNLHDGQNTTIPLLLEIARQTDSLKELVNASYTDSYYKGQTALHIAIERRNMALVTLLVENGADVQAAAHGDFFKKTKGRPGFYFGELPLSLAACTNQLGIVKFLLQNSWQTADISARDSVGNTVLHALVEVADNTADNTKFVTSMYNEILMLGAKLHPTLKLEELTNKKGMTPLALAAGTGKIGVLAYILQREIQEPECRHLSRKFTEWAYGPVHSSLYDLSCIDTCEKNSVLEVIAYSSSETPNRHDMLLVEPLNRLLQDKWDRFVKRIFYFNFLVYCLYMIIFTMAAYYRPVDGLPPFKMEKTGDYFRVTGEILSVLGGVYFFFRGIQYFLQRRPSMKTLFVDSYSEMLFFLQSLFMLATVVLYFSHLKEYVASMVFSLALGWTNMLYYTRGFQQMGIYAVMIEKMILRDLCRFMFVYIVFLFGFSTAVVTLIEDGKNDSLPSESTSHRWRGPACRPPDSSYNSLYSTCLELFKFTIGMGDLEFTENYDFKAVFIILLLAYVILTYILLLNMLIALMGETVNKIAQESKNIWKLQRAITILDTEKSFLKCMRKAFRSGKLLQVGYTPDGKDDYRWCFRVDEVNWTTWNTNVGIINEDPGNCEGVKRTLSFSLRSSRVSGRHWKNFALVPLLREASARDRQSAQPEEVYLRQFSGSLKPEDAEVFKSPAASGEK

With O=C(COC(=O)c1ccccc1-c1ccccc1)NC12CC3CC(CC(C3)C1)C2 [Compound 23, 2‐((3S,5S,7S)‐adamantan‐1‐ylamino)‐2‐oxoethyl [1,1′‐biphenyl]‐2‐carboxylate] the “block of hTRPV1‐channel activity” value (hTRPV1; 1 μM compound, 0.5 μM capsaicin) was “≈ 50%”, the IC50 (hTRPV1; capsaicin-evoked current, n = 6, read-out: IC50 of hTRPV1 current blockade) was 1.1 µM and 1 µM and the Emax [1] was 100%.
